Tests used:
U251 (CNS cancer) = assay: NCI-60 screen (SRB, 48 h); settings: Homo sapiens; for GI50: U-251
RXF 393 (Renal cancer) = assay: NCI-60 screen (SRB, 48 h); settings: Homo sapiens; for GI50: RXF 393; for IC (TGI): RXF 393, 48 h, read-out: TGI
Colon Cancer subpanel = assay: NCI-60 screen, subpanel; settings: Homo sapiens; for IC (TGI): 48 h, read-out: TGI MG_MID; for GI50: read-out: GI50 MG_MID
SK-OV-3 (Ovarian cancer) = assay: NCI-60 screen (SRB, 48 h); settings: Homo sapiens; for GI50: SK-OV-3; for IC (TGI): SK-OV-3, 48 h, read-out: TGI; for CC50: SK-OV-3, read-out: LC50
EKVX (NSC lung cancer) = assay: NCI-60 screen (SRB, 48 h); settings: Homo sapiens; for IC (TGI): 48 h, read-out: TGI
SW-620 (Colon cancer) = assay: NCI-60 screen (SRB, 48 h); settings: Homo sapiens; for GI50: SW-620
[1] = tested on: NCI-H460 (NSC lung cancer); assay: NCI-60 screen (SRB, 48 h); settings: Homo sapiens; for GI50: NCI-H460
Breast cancer subpanel = assay: NCI-60 screen, subpanel; settings: Homo sapiens; for IC (TGI): 48 h, read-out: TGI MG_MID; for GI50: read-out: GI50 MG_MID
SK-MEL-28 (Melanoma) = assay: NCI-60 screen (SRB, 48 h); settings: Homo sapiens; for GI50: SK-MEL-28
T-47D (Breast cancer) = assay: NCI-60 screen (SRB, 48 h); settings: Homo sapiens, T47D; for IC (TGI): 48 h, read-out: TGI
786-0 (Renal cancer) = assay: NCI-60 screen (SRB, 48 h); settings: Homo sapiens; for GI50: 786-0; for IC (TGI): 786-0, 48 h, read-out: TGI
OVCAR-4 (Ovarian cancer) = assay: NCI-60 screen (SRB, 48 h); type: cell-based; settings: Homo sapiens; for IC (TGI): OVCAR-4, 48 h; for GI50: read-out: GI50
LOX IMVI (Melanoma) = assay: NCI-60 screen (SRB, 48 h); type: cell-based; settings: Homo sapiens; for activity at 10 µM: 1 dose 10 µM, read-out: Growth % of the Most Sensitive Cell Lines; for GI50: read-out: GI50
[2] = tested on: NCI/ADR-RES (Ovarian cancer); assay: NCI-60 screen (SRB, 48 h); settings: Homo sapiens
MOLT-4 (Leukemia) = assay: NCI-60 screen (SRB, 48 h); settings: Homo sapiens; for GI50: MOLT-4; for IC (TGI): MOLT-4, 48 h, read-out: TGI
HOP-92 (NSC lung cancer) = assay: NCI-60 screen (SRB, 48 h); settings: Homo sapiens; for GI50: HOP-92; for IC (TGI): HOP-92, 48 h, read-out: TGI
[3] = tested on: MDA-MB-468 (Breast cancer); assay: cells; settings: Homo sapiens; for GI50: MDA-MB-468; for IC (TGI): MDA-MB-468, 48 h, read-out: TGI
Ovarian Cancer subpanel = assay: NCI-60 screen, subpanel; settings: Homo sapiens; for IC (TGI): 48 h, read-out: TGI MG_MID; for GI50: read-out: GI50 MG_MID; for CC50: read-out: LC50 MG_MID
M14 (Melanoma) = assay: NCI-60 screen (SRB, 48 h); settings: Homo sapiens; for GI50: M14; for IC (TGI): M14, 48 h, read-out: TGI
ACHN (Renal cancer) = assay: NCI-60 screen (SRB, 48 h); settings: Homo sapiens; for IC (TGI): 48 h, read-out: TGI
SNB-75 (CNS cancer) = assay: NCI-60 screen (SRB, 48 h); settings: Homo sapiens
HL-60(TB) (Leukemia) = assay: NCI-60 screen (SRB, 48 h); type: cell-based; settings: Homo sapiens
RPMI-8226 (Leukemia) = assay: NCI-60 screen (SRB, 48 h); settings: Homo sapiens
[4] = read-out: LC50 (the source's name)

C=C(C)[C@@H]1CC[C@]2(C)[C@H](CC=C3[C@@H]4[C@@H](C)[C@H](C)CC[C@]4(CO)CC[C@]32C)[C@@]1(C)CCCN [Compound 19]
GI50 (U251 (CNS cancer)): 0.92 µM | IC (TGI) (U251 (CNS cancer); U-251, 48 h, read-out: TGI): 1.82 µM | GI50 (RXF 393 (Renal cancer)): 0.83 µM | IC (TGI) (RXF 393 (Renal cancer)): 1.59 µM | CC50 (RXF 393 (Renal cancer); RXF 393, read-out: LC50): 3.07 µM | IC (TGI) (Colon Cancer subpanel): 1.8 µM | GI50 (Colon Cancer subpanel): 0.9 µM | CC50 (Colon Cancer subpanel; read-out: LC50 MG_MID): 3.63 µM | GI50 (SK-OV-3 (Ovarian cancer)): 4.42 µM | IC (TGI) (SK-OV-3 (Ovarian cancer)): 12 µM | CC50 (SK-OV-3 (Ovarian cancer)): 30.5 µM | GI50 (EKVX (NSC lung cancer)): 1.08 µM | IC (TGI) (EKVX (NSC lung cancer)): 2.94 µM | CC50 (EKVX (NSC lung cancer); read-out: LC50): 26.5 µM | GI50 (SW-620 (Colon cancer)): 1.01 µM | IC (TGI) (SW-620 (Colon cancer); SW-620, 48 h, read-out: TGI): 2.11 µM | CC50 (SW-620 (Colon cancer); SW-620, read-out: LC50): 4.39 µM | GI50 [1]: 0.91 µM | IC (TGI) ([1]; NCI-H460, 48 h, read-out: TGI): 1.71 µM | CC50 ([1]; NCI-H460, read-out: LC50): 3.19 µM | IC (TGI) (Breast cancer subpanel): 3.62 µM | GI50 (Breast cancer subpanel): 1.28 µM | CC50 (Breast cancer subpanel; read-out: LC50 MG_MID): 16.9 µM | GI50 (SK-MEL-28 (Melanoma)): 0.95 µM | IC (TGI) (SK-MEL-28 (Melanoma); SK-MEL-28, 48 h, read-out: TGI): 1.67 µM | CC50 (SK-MEL-28 (Melanoma); SK-MEL-28, read-out: LC50): 2.94 µM | GI50 (T-47D (Breast cancer)): 1.51 µM | IC (TGI) (T-47D (Breast cancer)): 5.15 µM | CC50 (T-47D (Breast cancer); read-out: LC50): > 50 µM | GI50 (786-0 (Renal cancer)): 0.84 µM | IC (TGI) (786-0 (Renal cancer)): 1.58 µM | CC50 (786-0 (Renal cancer); 786-0, read-out: LC50): 2.97 µM | IC (TGI) (OVCAR-4 (Ovarian cancer)): 2.85 µM | GI50 (OVCAR-4 (Ovarian cancer); OVCAR-4): 0.86 µM | CC50 (OVCAR-4 (Ovarian cancer); OVCAR-4, read-out: LC50 (the source's name)): 25 µM | IC (TGI) (LOX IMVI (Melanoma); 48 h): 1.57 µM | activity at 10 µM (LOX IMVI (Melanoma); 48 h): -99% | GI50 (LOX IMVI (Melanoma)): 0.86 µM | CC50 (LOX IMVI (Melanoma); [4]): 2.86 µM | GI50 [2]: 0.99 µM | IC (TGI) ([2]; 48 h, read-out: TGI): 2.17 µM | CC50 ([2]; read-out: LC50): 4.77 µM | GI50 (MOLT-4 (Leukemia)): 1.35 µM | IC (TGI) (MOLT-4 (Leukemia)): 4.07 µM | CC50 (MOLT-4 (Leukemia); MOLT-4, read-out: LC50): 27.9 µM | GI50 (HOP-92 (NSC lung cancer)): 1.04 µM | IC (TGI) (HOP-92 (NSC lung cancer)): 3.46 µM | CC50 (HOP-92 (NSC lung cancer); HOP-92, read-out: LC50): 23.1 µM | GI50 [3]: 0.82 µM | IC (TGI) [3]: 1.66 µM | CC50 ([3]; MDA-MB-468, read-out: LC50): 3.36 µM | IC (TGI) (Ovarian Cancer subpanel): 4.2 µM | GI50 (Ovarian Cancer subpanel): 1.57 µM | CC50 (Ovarian Cancer subpanel): 19.7 µM | GI50 (M14 (Melanoma)): 0.85 µM | IC (TGI) (M14 (Melanoma)): 1.76 µM | CC50 (M14 (Melanoma); M14, read-out: LC50): 3.64 µM | GI50 (ACHN (Renal cancer)): 1.42 µM | IC (TGI) (ACHN (Renal cancer)): 3.4 µM | CC50 (ACHN (Renal cancer); read-out: LC50): 17 µM | GI50 (SNB-75 (CNS cancer); SNB-75): 0.85 µM | IC (TGI) (SNB-75 (CNS cancer); SNB-75, 48 h, read-out: TGI): 3.62 µM | CC50 (SNB-75 (CNS cancer); SNB-75, read-out: LC50): 17.1 µM | GI50 (HL-60(TB) (Leukemia)): 1.03 µM | IC (TGI) (HL-60(TB) (Leukemia); 48 h): 2.27 µM | CC50 (HL-60(TB) (Leukemia); [4]): 5 µM

C=C(C)[C@@H]1CC[C@]2(COS(=O)(=O)c3ccc(C)cc3)CC[C@]3(C)[C@@H](CC[C@@H]4[C@@]5(C)CCCNC(C)(C)[C@@H]5CC[C@]43C)[C@@H]12 [Compound 12]
GI50 (U251 (CNS cancer)): 1.75 µM | GI50 (RXF 393 (Renal cancer)): 1.62 µM | IC (TGI) (RXF 393 (Renal cancer)): 3.13 µM | IC (TGI) (Colon Cancer subpanel): 3.37 µM | GI50 (Colon Cancer subpanel): 1.73 µM | GI50 (SK-OV-3 (Ovarian cancer)): 1.87 µM | IC (TGI) (SK-OV-3 (Ovarian cancer)): 3.3 µM | CC50 (SK-OV-3 (Ovarian cancer)): 5.82 µM | GI50 (EKVX (NSC lung cancer)): 1.62 µM | IC (TGI) (EKVX (NSC lung cancer)): 3.11 µM | GI50 (SW-620 (Colon cancer)): 1.83 µM | GI50 [1]: 1.68 µM | IC (TGI) (Breast cancer subpanel): 3.5 µM | GI50 (Breast cancer subpanel): 1.71 µM | GI50 (SK-MEL-28 (Melanoma)): 2.15 µM | GI50 (T-47D (Breast cancer)): 1.57 µM | IC (TGI) (T-47D (Breast cancer)): 3.15 µM | GI50 (786-0 (Renal cancer)): 1.92 µM | IC (TGI) (786-0 (Renal cancer)): 3.59 µM | GI50 (RPMI-8226 (Leukemia); RPMI-8226): 1.86 µM | IC (TGI) (RPMI-8226 (Leukemia); RPMI-8226, 48 h, read-out: TGI): 4.54 µM | CC50 (RPMI-8226 (Leukemia); RPMI-8226, read-out: LC50): > 100 µM | IC (TGI) (OVCAR-4 (Ovarian cancer)): 3.38 µM | GI50 (OVCAR-4 (Ovarian cancer); OVCAR-4): 1.86 µM | activity at 10 µM (LOX IMVI (Melanoma); 48 h): -86.5% | GI50 (LOX IMVI (Melanoma)): 1.72 µM | GI50 [2]: 1.74 µM | GI50 (MOLT-4 (Leukemia)): 1.62 µM | IC (TGI) (MOLT-4 (Leukemia)): 3.59 µM | GI50 (HOP-92 (NSC lung cancer)): 1.54 µM | IC (TGI) (HOP-92 (NSC lung cancer)): 3.01 µM | GI50 [3]: 1.74 µM | IC (TGI) [3]: 3.33 µM | IC (TGI) (Ovarian Cancer subpanel): 3.37 µM | GI50 (Ovarian Cancer subpanel): 1.79 µM | CC50 (Ovarian Cancer subpanel): 5.82 µM | GI50 (M14 (Melanoma)): 1.83 µM | IC (TGI) (M14 (Melanoma)): 3.3 µM | GI50 (ACHN (Renal cancer)): 1.98 µM | IC (TGI) (ACHN (Renal cancer)): 3.45 µM

— PMC7914897, “Cytotoxic Potential of a-Azepano- and 3-Amino-3,4-SeCo-Triterpenoids” (International Journal of Molecular Sciences, 2021)
